In patent US11267811B2, “Small molecule inhibitors of galectin-3” (BRISTOL-MYERS SQUIBB COMPANY, priority 2017, dated 2022):
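Further: compounds preincubated 30 min with hGal-3, then 1 h with B-ASF, detection via terbium anti-His antibody and streptavidin d2. Control with B-ASF counts as full signal, omitting B-ASF as background.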

These molecules were tested against His-tagged recombinant human Gal-3 (hGal-3) (Homo sapiens (Human), UniProt P17931) (assay: Gal-3 HTRF assay (His-tagged hGal-3 binding to B-ASF)). Details: HTRF, hGal-3 15 nM, B-ASF 15 nM; read-out: hGal-3 IC50.
Sequence of His-tagged recombinant human Gal-3 (hGal-3) (P17931 whole entry): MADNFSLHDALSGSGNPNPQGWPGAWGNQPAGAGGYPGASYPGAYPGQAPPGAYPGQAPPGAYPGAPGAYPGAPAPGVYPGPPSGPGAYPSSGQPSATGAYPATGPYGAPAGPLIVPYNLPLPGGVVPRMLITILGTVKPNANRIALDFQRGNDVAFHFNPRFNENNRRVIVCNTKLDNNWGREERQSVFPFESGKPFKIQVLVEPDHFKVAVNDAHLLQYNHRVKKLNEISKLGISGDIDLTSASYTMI
In the case of Cc1nc([C@@H]2O[C@H](CO)[C@H](O)[C@H](n3cc(-c4ccc(Cl)c(Cl)c4)nn3)[C@H]2O)n(-c2cc(Cl)ccc2C(F)(F)F)n1 [Example A3, (2S,3R,4R,5R,6R)-2-(1-(5-Chloro-2-(trifluoromethyl)phenyl)-3-methyl-1H-1,2,4-triazol-5-yl)-4-(4-(3,4-dichlorophenyl)-1H-1,2,3-triazol-1-yl)-6-(hydroxymethyl)tetrahydro-2H-pyran-3,5-diol], the IC50 is reported as 33 nM. Cc1nc2ccc(-n3nc(C(F)(F)F)nc3[C@@H]3O[C@H](CO)[C@H](O)[C@H](n4cc(-c5cc(F)c(F)c(F)c5)nn4)[C@H]3O)cc2s1 [Example A4, (2R,3R,4R,5R,6S)-2-(Hydroxymethyl)-6-(1-(2-methylbenzo[d]thiazol-6-yl)-3-(trifluoromethyl)-1H-1,2,4-triazol-5-yl)-4-(4-(3,4,5-trifluorophenyl)-1H-1,2,3-triazol-1-yl)tetrahydro-2H-pyran-3,5-diol] gave an IC50 of 58 nM. Molecule CO[C@@H]1[C@@H](n2cc(-c3cc(F)c(Cl)c(F)c3)nn2)[C@@H](O)[C@@H](CO)O[C@H]1c1nc(C)nn1-c1ccc2ncsc2c1 [Example A5, (2R,3R,4S,5R,6S)-6-(1-(Benzo[d]thiazol-6-yl)-3-methyl-1H-1,2,4-triazol-5-yl)-4-(4-(4-chloro-3,5-difluorophenyl)-1H-1,2,3-triazol-1-yl)-2-(hydroxymethyl)-5-methoxytetrahydro-2H-pyran-3-ol] has an IC50 of 20 nM.

Same assay, conditions: read-out: hGal IC50
With OC[C@H]1O[C@@H](c2ncnn2-c2cc(Cl)ccc2C(F)(F)F)[C@H](O)[C@@H](n2cc(-c3cc(F)c(F)c(F)c3)nn2)[C@H]1O [Example A7] the IC50 was 27 nM. Cc1nc([C@@H]2O[C@H](CO)[C@H](O)[C@H](n3cc(-c4cc(F)c(F)c(F)c4)nn3)[C@H]2O)n(-c2ccc3nc(C(F)(F)F)sc3c2)n1 [Example A8] gave an IC50 of 505 nM. In the case of Cc1nc([C@@H]2O[C@H](CO)[C@H](O)[C@H](n3cc(-c4ccc(Cl)c(F)c4)nn3)[C@H]2O)n(-c2ccc3nc(C(F)(F)F)sc3c2)n1 [Example A9], the IC50 is reported as 837 nM. In the case of Cc1nc([C@@H]2O[C@H](CO)[C@H](O)[C@H](n3cc(-c4cc(F)c(Cl)c(F)c4)nn3)[C@H]2O)n(-c2cc(Cl)cnc2C(F)(F)F)n1 [Example A10], the IC50 is reported as 29 nM. With Cc1nc([C@@H]2O[C@H](CO)[C@H](O)[C@H](n3cc(-c4cc(F)c(Cl)c(F)c4)nn3)[C@H]2O)n(-c2cc(Cl)cc3cccnc23)n1 [Example A11] the IC50 was 17 nM. Molecule Cc1nc([C@@H]2O[C@H](CO)[C@H](O)[C@H](n3cc(-c4ccc(Br)c(F)c4)nn3)[C@H]2O)n(-c2cc(Cl)cc3cccnc23)n1 [Example A12] has an IC50 of 46 nM. Cc1nc([C@@H]2O[C@H](CO)[C@H](O)[C@H](n3cc(-c4cc(F)c(Cl)c(F)c4)nn3)[C@H]2O)n(-c2cc(Cl)ccc2Br)n1 [Example A13] gave an IC50 of 22 nM. In the case of Cc1nc([C@@H]2O[C@H](CO)[C@H](O)[C@H](n3cc(-c4cc(F)c(Br)c(F)c4)nn3)[C@H]2O)n(-c2cc(Cl)cc3cccnc23)n1 [Example A14], the IC50 is reported as 24 nM. Work on Cc1nc([C@@H]2O[C@H](CO)[C@H](O)[C@H](n3cc(-c4ccc(Cl)c(F)c4)nn3)[C@H]2O)n(-c2cc(Cl)ccc2Br)n1 [Example A15] yielded an IC50 of 40 nM. In the case of Cc1nc([C@@H]2O[C@H](CO)[C@H](O)[C@H](n3cc(-c4cc(F)c(Cl)c(F)c4)nn3)[C@H]2O)n(-c2cc(Cl)cc3ncccc23)n1 [Example A16], the IC50 is reported as 51 nM. Cc1nc([C@@H]2O[C@H](CO)[C@H](O)[C@H](n3cc(-c4ccc(Br)c(F)c4)nn3)[C@H]2O)n(-c2cc(Cl)cc3ncccc23)n1 [Example A17] showed an IC50 of 82 nM. Cc1nc([C@@H]2O[C@H](CO)[C@H](O)[C@H](n3cc(-c4ccc(Cl)c(F)c4)nn3)[C@H]2O)n(-c2cc(Cl)ccc2OC(F)(F)F)n1 [Example A20] gave an IC50 of 31 nM. For Cc1nc([C@@H]2O[C@H](CO)[C@H](O)[C@H](n3cc(-c4ccc(Br)c(F)c4)nn3)[C@H]2O)n(-c2ccc3ncsc3c2)n1 [Example A22], the IC50 was 22 nM. With Cc1nc([C@@H]2O[C@H](CO)[C@H](O)[C@H](n3cc(-c4cc(F)c(Cl)c(Cl)c4)nn3)[C@H]2O)n(-c2ccc3ncsc3c2)n1 [Example A24] the IC50 was 34 nM. Work on Cc1nc([C@@H]2O[C@H](CO)[C@H](O)[C@H](n3cc(-c4cc(F)c(Cl)c(Cl)c4)nn3)[C@H]2O)n(-c2ccc3nc(C)sc3c2)n1 [Example A25] yielded an IC50 of 45 nM. In the case of Cc1nc([C@@H]2O[C@H](CO)[C@H](O)[C@H](n3cc(-c4cc(F)c(Cl)c(Cl)c4)nn3)[C@H]2O)n(-c2cc(Cl)ccc2OC(F)(F)F)n1 [Example A26], the IC50 is reported as 36 nM. In the case of Cc1nc([C@@H]2O[C@H](CO)[C@H](O)[C@H](n3cc(-c4cc(F)c(Br)c(F)c4)nn3)[C@H]2O)n(-c2ccc3ncsc3c2)n1 [Example A29], the IC50 is reported as 27 nM. Cc1nc([C@@H]2O[C@H](CO)[C@H](O)[C@H](n3cc(-c4cc(F)c(Cl)c(F)c4)nn3)[C@H]2O)n(-c2cc3sc(C)nc3cc2C(F)(F)F)n1 [Example A30] was tested, and the IC50 was 17 nM. Cc1nc([C@@H]2O[C@H](CO)[C@H](O)[C@H](n3cc(-c4ccc(Br)c(F)c4)nn3)[C@H]2O)n(-c2cc3sc(C)nc3cc2C(F)(F)F)n1 [Example A31] showed an IC50 of 22 nM. With Cc1nc([C@@H]2O[C@H](CO)[C@H](O)[C@H](n3cc(-c4cc(F)c(Br)c(F)c4)nn3)[C@H]2O)n(-c2ccc3nc(C)sc3c2)n1 [Example A32] the IC50 was 41 nM. Molecule Cc1nc([C@@H]2O[C@H](CO)[C@H](O)[C@H](n3cc(-c4cc(F)c(Br)c(F)c4)nn3)[C@H]2O)n(-c2cc3sc(C)nc3cc2C(F)(F)F)n1 [Example A33] has an IC50 of 103 nM. Cc1nc([C@@H]2O[C@H](CO)[C@H](O)[C@H](n3cc(-c4cc(F)c(Cl)c(F)c4)nn3)[C@H]2O)n(-c2cc(Cl)ccc2C2CC2)n1 [Example A34] was tested, and the IC50 was 46 nM. For Cc1nc([C@@H]2O[C@H](CO)[C@H](O)[C@H](n3cc(-c4cc(F)c(Br)c(F)c4)nn3)[C@H]2O)n(-c2cc(Cl)ccc2C2CC2)n1 [Example A35], the IC50 was 151 nM. With Cc1nc([C@@H]2O[C@H](CO)[C@H](O)[C@H](n3cc(-c4cc(F)c(Cl)c(F)c4)nn3)[C@H]2O)n(-c2ccc3nc(C)sc3c2)n1 [Example A36] the IC50 was 53 nM. For Cc1nc([C@@H]2O[C@H](CO)[C@H](O)[C@H](n3cc(-c4cc(F)c(Cl)c(F)c4)nn3)[C@H]2O)n(-c2cc(Cl)cc3ccncc23)n1 [Example A37], the IC50 was 51 nM. Molecule Cc1nc([C@@H]2O[C@H](CO)[C@H](O)[C@H](n3cc(-c4ccc(Br)c(F)c4)nn3)[C@H]2O)n(-c2cc(Cl)ccc2C2CC2)n1 [Example A38] has an IC50 of 72 nM. Cc1nc([C@@H]2O[C@H](CO)[C@H](O)[C@H](n3cc(-c4ccc(Br)c(F)c4)nn3)[C@H]2O)n(-c2cc(Cl)cc3ccncc23)n1 [Example A39] gave an IC50 of 161 nM. Cc1nc([C@@H]2O[C@H](CO)[C@H](O)[C@H](n3cc(-c4cc(F)c(Cl)c(F)c4)nn3)[C@H]2O)n(-c2cc(CC(F)(F)F)ccc2Cl)n1 [Example A40] gave an IC50 of 126 nM. For Cc1nc([C@@H]2O[C@H](CO)[C@H](O)[C@H](n3cc(-c4ccc(Cl)c(F)c4)nn3)[C@H]2O)n(-c2cc(Cl)ccc2C2CC2)n1 [Example A41], the IC50 was 59 nM. Cc1nc([C@@H]2O[C@H](CO)[C@H](O)[C@H](n3cc(-c4cc(F)c(Cl)c(F)c4)nn3)[C@H]2O)n(-c2cc(Cl)ccc2C(C)(C)C)n1 [Example A42] showed an IC50 of 11 nM. Molecule Cc1nc([C@@H]2O[C@H](CO)[C@H](O)[C@H](n3cc(-c4cc(F)c(Cl)c(F)c4)nn3)[C@H]2O)n(-c2cc(C(F)F)ccc2Cl)n1 [Example A43] has an IC50 of 50 nM.
